Test results: patent publication US20050019825A9, “Common ligand mimics: pseudothiohydantoins” (priority 2002, published 2005)
Read-outs that look alike come from different tables or passages of the source.

What was measured:
[1] = target: dihydrodipicolinate reductase (DHPR) (Escherichia coli, UniProt P04036); assay: DHPR kinetic assay, spectrophotometric oxidation of NADPH (340 nm); format: biochemical
Protocol: For DHPR analysis, the compounds were screened using a kinetic protocol that spectrophotometrically evaluates oxidation of NADPH.
Stock solutions of each of the reagents were prepared in the following concentrations. Dilutions of the stock solutions were prepared prior to running the assay in the concentrations indicated below. DHPR was diluted in 10 mM HEPES at a pH of 7.4. DHPS (dihydrodipicolinate synthase) was not diluted and was stored in eppindorf tubes.
The L-ASA (L-aspartate semialdehyde) solution was prepared in the following manner. 180 μM stock solution of ASA was prepared. 100 μl of the ASA stock solution was mixed with 150 μl of concentrated NaHCO3 and 375 μl of H2O. For use in the assay, 28.8 mM L-ASA was equal to 625 μl of the solution. The L-ASA stock solution was kept at a temperature of −20° C. After dilution, the pH of the 28.8 mM solution was checked and maintained between 1 and 2.
The DHPS reaction was monitored at 340 nm prior to and after addition of the inhibitor to detect background reaction with the inhibitor. The solution for background detection was a 945 μl solution containing 0.1 HEPES (pH 7.8), 1 mM pyruvate, 6 μM NADPH, 40 μM L-ASA, and 7 μl of 1 mg/ml DHPS at 25° C. in the volumes provided above. The sample solution was then mixed and incubated for 10 minutes. Next, 500 nM solutions of the inhibitors and enough DMSO to provide a final DMSO concentration of 5% of the total assay volume were added. The solution was mixed and incubated for an additional 6 minutes.
In DHPR samples, 5 μl of the diluted DHPR enzyme were added. The sample was mixed for 20 seconds and then the reaction was run for 10 minutes. After a 50 second lag, the samples were read in a Cary spectrophotometer at 340 nm. Reading of the samples was continued until 300 seconds. Cuvette #1 contained the control reaction (no inhibitor), and cuvette #2 contained the positive control reaction in which Cibacron Blue at 2.58 μM was substituted for inhibitor to yield 70 to 80% inhibition. The substrate was kept at a level at least 10 times the Km. The final concentration of L-ASA was about 1 mM.

[2] = target: T1, alcohol dehydrogenase (ADH) (Saccharomyces cerevisiae, UniProt P00330); assay: ADH kinetic assay, spectrophotometric reduction of NAD+ (340 nm); format: biochemical, Bakers Yeast
T1 construct: 10 μl of ADH from Bakers Yeast; host or cells: bakers yeast
T1 sequence (P00330 1-348): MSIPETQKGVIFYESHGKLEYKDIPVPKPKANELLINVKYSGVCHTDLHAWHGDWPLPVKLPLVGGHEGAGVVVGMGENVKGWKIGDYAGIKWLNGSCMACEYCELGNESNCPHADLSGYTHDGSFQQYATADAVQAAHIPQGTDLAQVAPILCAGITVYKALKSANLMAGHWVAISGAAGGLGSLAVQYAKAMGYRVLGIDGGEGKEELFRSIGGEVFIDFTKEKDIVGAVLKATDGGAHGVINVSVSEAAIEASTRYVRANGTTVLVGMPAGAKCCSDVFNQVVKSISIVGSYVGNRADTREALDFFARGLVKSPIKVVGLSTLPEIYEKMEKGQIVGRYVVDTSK
Protocol: For ADH analysis, the compounds were screened using a kinetic protocol that spectrophotometrically evaluates reduction of NAD+.
Stock solutions of each of the reagents were prepared in the following concentrations. Dilutions of the stock solutions were prepared prior to running the assay in the concentrations indicated below.
The ADH reaction was monitored at 340 nm prior to and after addition of the inhibitor to detect background reaction with the inhibitor. Solutions of 100 μl of the inhibitors in DMSO were prepared to provide a final DMSO concentration of 5% of the total assay volume. These solutions were incubated for 6 minutes at 25° C. in a 990 μl of a solution containing 0.1 M HEPES, pH 8.0, 80 μM NAD+, and 130 mM of ethanol. The reaction was then initiated with 10 μl of ADH from Bakers Yeast ([…]; 1:400 dilution of 1.0 mg/ml). After the enzyme was added, the solution was mixed for 20 seconds, and the reaction was run for 10 minutes. After a 50 second lag, the samples were read in a Cary spectrophotometer at 340 nm. Reading of the samples was continued until 300 seconds. […] The substrate was kept at a level at least 10 times the Km. The final concentration of […] was about 2.5 mM.
Where only a simple read was desired, as in the case of NAD+ concentration determination, 13 μl (10 M stock) of ethanol was used to drive the reaction, and 10 μl of pure enzyme (1 mg/ml) was used. NAD+ was soluble at 2 mM, which allowed the concentration determination step to be skipped. In this situation, the procedure was as follows. All of the ingredients except for the enzyme were mixed together. The solution was mixed well and the absorbance at 340 nm read. The enzyme was added and read again at OD 340 after the absorbance stopped changing, generally 10 to 15 minutes after the enzyme was added.

[3] = target: 1-deoxy-D-xylulose-5-phosphate reductase (DOXPR) (Escherichia coli, UniProt P45568); assay: DOXPR kinetic assay, spectrophotometric oxidation of NADPH (340 nm); format: biochemical
1-deoxy-D-xylulose-5-phosphate reductase (DOXPR), sequence (P45568 whole entry): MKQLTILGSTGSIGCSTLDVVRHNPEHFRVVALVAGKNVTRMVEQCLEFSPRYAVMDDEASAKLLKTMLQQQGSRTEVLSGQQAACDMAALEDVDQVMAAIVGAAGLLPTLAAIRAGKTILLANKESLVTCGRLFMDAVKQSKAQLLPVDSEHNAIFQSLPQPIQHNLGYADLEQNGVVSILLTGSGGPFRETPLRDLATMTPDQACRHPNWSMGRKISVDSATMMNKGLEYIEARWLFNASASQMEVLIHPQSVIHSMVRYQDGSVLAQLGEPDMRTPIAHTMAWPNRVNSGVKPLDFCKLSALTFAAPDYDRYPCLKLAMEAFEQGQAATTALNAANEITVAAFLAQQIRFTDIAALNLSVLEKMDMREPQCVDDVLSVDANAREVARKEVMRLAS
Protocol: For DOXPR analysis, the compounds were screened using a kinetic protocol that spectrophotometrically evaluates oxidation of NADPH.
Stock solutions of each of the reagents were prepared in the following concentrations. Dilutions of the stock solutions were prepared prior to running the assay in the concentrations indicated below. DOXPR was diluted in 10 mM HEPES at a pH of 7.4.
The DOXPR reaction was monitored at 340 nm prior to and after addition of the inhibitor to detect background reaction with the inhibitor. Solutions of the inhibitors in DMSO were prepared to provide a final DMSO concentration of 5% of the total assay volume. These solutions were incubated for 6 minutes at 25° C. in a 990 μl of a solution containing 0.1 M HEPES, pH 7.4, 1 mM MnCl2 1.15 mM DOXP, and 8 μM NADPH. The oxidation reaction was then initiated with 10 μl of DOXP reductoisomerase (10 μg/ml). After the enzyme was added, the solution was mixed for 20 seconds, and the reaction was run for 10 minutes. After a 50 second lag, the samples were read in a Cary spectrophotometer at 340 nm. Reading of the samples was continued until 300 seconds. Cuvette #1 contained the control reaction (no inhibitor), and cuvette #2 contained the positive control reaction in which Cibacron Blue at 10.32 μM was substituted for inhibitor to yield 70 to 80% inhibition. The substrate was kept at a level at least 10 times the Km.

[4] = common ligand mimics, Examples 23/24 (FIG. 5, FIG. 6), read-out: IC50 for DHPR
[5] = common ligand mimics, Examples 23/24, read-out: IC50 for DOXPR

dihydrodipicolinate reductase (DHPR), sequence (P04036 whole entry): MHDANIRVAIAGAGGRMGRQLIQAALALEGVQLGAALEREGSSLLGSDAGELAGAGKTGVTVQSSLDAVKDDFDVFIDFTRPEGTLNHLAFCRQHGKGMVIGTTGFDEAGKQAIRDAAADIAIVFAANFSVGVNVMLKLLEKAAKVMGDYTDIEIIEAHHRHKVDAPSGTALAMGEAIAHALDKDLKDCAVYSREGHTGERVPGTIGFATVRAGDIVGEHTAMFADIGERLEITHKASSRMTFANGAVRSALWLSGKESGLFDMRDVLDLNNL

Structure (SMILES) | IC50 [1, 4] [µM] | IC50 [2] [µM] | IC50 [3, 5] [µM] | IC50 [1] [µM] | IC50 [3] [µM] | other results
N=C1NC(=O)C(=Cc2ccc(C(=O)O)cc2)S1 [4-(2-imino-4-oxo-thiazolidin-5-ylidenemethyl)-benzoic acid] | > 25 | > 100 | > 25 | – | – | inhibition of ADH (in words) ([2]; Example 24 (FIG. 6)): no inhibition
COc1cc(O)ccc1C=C1SC(=N)NC1=O [5-(4-hydroxy-2-methoxy-benzylidene)-2-imino-thiazolidin-4-one] | > 75 | – | > 100 | – | – | –
COc1cc(C=C2SC(N)=NC2=O)ccc1O [5-(4-hydroxy-3-methoxy-benzylidene)-2-imino-thiazolidin-4-one] | – | > 100 | – | > 75 | > 100 | –
N=C1NC(=O)C(=Cc2ccc(O)c([N+](=O)[O-])c2)S1 [5-(4-hydroxy-3-nitro-benzylidene)-2-imino-thiazolidin-4-one] | – | > 150 | – | > 100 | > 100 | –
Nc1c(S(=O)(=O)O)cc(Nc2ccc(Nc3nc(Cl)nc(Nc4ccccc4S(=O)(=O)O)n3)c(S(=O)(=O)O)c2)c2c1C(=O)c1ccccc1C2=O [Cibacron Blue, reference compound] | – | – | – | – | – | inhibition at 2.58 µM ([1]; Cibacron Blue at 2.58 μM, read-out: inhibition of DHPR, positive control): 70 to 80%; inhibition at 15.5 µM ([2]; Cibacron Blue at 15.5 μM, read-out: inhibition of ADH, positive control): 50 to 60%; inhibition at 10.32 µM ([3]; Cibacron Blue at 10.32 μM, read-out: inhibition of DOXPR, positive control): 70 to 80%
